Molecules are shown by their SMILES. Peptide text beside a SMILES is read from it. * marks the point of attachment. Cbz = O=C(OCc1ccccc1)*

The subject of assay [1] is SMN protein in NSC34 cells. As to the kind of experiment: Cellular SMN protein level after LDN-57444 treatment (Western blot). The conditions noted are these: for SMN protein expression level increase compared to the vehicle group: 5 μM; for SMN protein increase: 10 μM. Format: cell-based. How it is done:
(§1) Western blot analysis and immunohistochemical staining were performed as described previously. The primary antibodies used in this study were β-actin (1:2,000, Santa Cruz, 1-19), SMN (1:1,000, Santa Cruz, SC-32313), Gemin 2, Gemin 3 and Gemin 5 polyclonal antibody (1:200, Santa Cruz), UCHL1 monoclonal antibodies (1:2,000, Calbiochem.), HA-tag (1:2,000, Sigma), FITC-conjugated anti-mouse, alkaline phosphatase-conjugated anti-rabbit antibodies (1:500, Jackson ImmunoResearch Lab.) and anti-EGFP rabbit polyclonal antibody (1:5,000, produced in-house).
The cellular function of UCHL1 on SMN protein was further characterized with an over-expression assay. The UCHL1 was tagged with HA tag and over expressed in HEK293, p19 and NSC34 cells to evaluate the cellular function. […] The regulatory effect of UCHL1 was also confirmed with UCHL1 specific inhibitor (FIGS. 5A and 5B). SMN protein could effectively elevate expression level at 5 μM after LDN-57444 treatment for 8 (38%), 16 (42%), 24 (43%) and 48 (46%) hours compared to the vehicle group (FIGS. 5A and 5B).
For orientation: In western blotting, separated proteins are transferred to a membrane and probed.

Assay [2] relates to nucleus gems in NSC34 cells. The assay is described as follows: Nucleus gems count by immunofluorescence staining (anti-Gemin 2). It is filed as cell-based. The conditions noted are these: for increase of gems number per one hundred cells comparing to vehicle: NSC34 cells, 10 μM; for Total number of nucleus gems per 100 cells: NSC-34 cells. How it is done: The cellular expression localization of UCHL1 and SMN was determined by immunofluorescence as previously described (Hsu, S. H. et al. (2004) Exp Cell Res, 294, 185-198). HEK 293 and NSC34 cells were cultured on coverslides pre-coated with poly-L-lysine for 16 hours. After washing with cold PBS, cells were fixed with 2% paraformaldehyde in PBS for 30 minutes on ice, and then the slides were washed with PBS for 30 minutes. Cells were permeabilized with buffer containing 0.2% Triton X-100 and 1% NGS in PBS for 20 minutes on ice, and then the slides were washed with PBS to remove excess detergent. Cells were then incubated in anti-EGFP (or anti-HA) and anti-SMN polyclonal antibody (1:200) for 1 hour at room temperature. After washing cells with PBS for 30 minutes, FITC-conjugated […] anti-rabbit and -mouse polyclonal antibody (1:300) was added and the cells were incubated for another 1 hour at room temperature in a humid chamber. Cells were finally counterstained with DAPI to localize the nucleus and observed by confocal microscopy.
In additional to the use of specific UCHL1 inhibitor, the specific shRNAi constructs for UCHL1 were also used to monitor the regulatory effects of UCHL1 on SMN protein. […] The knockdown efficiency of these shRNAi constructs to UCHL1 was 25, 70 and 47% of vector control and the SMN protein was increased 32, 46 and 47% (FIG. 5D). […] The cellular function of elevated SMN was also examined with nucleus gems by immuno-fluorescence staining (FIG. 5E). The nucleus gems stained with anti-Gemin 2 antibody were counted for one hundred NSC34 treated with vehicle or LDN-57444 for 24 hours and 48 hours.

The test system of assay [3] is SMN protein in SMA patients' skin fibroblast cells. The assay is described as follows: Cellular SMN protein level in SMA patients' skin fibroblast cells. Format: cell-based, human. The procedure: as §1
In order to investigate the possibility of therapeutic application, the UCHL1 specific inhibitor was also applied to the SMA patients' skin fibroblast cells. Type II and type III SMA skin fibroblast cells were treated with MG132, a proteasome inhibitor, and LDN-57444.

The subject of assay [4] is ubiquitinated SMN protein in NSC34 cells. As to the kind of experiment: Cellular ubiquitination of SMN (anti-SMN immunoprecipitation, anti-ubiquitin blot). It is filed as cell-based. The conditions noted are these: different concentrations of inhibitor. The procedure: Immunoprecipitation assays were performed as previously described with some modifications. Cells with endogenous or ectopically expressed UCHL1 were lysed with RIPA buffer containing 0.2% SDS. After sonication, the lysate was diluted with modified RIPA containing 1% NP-40 for immunoprecipitation. Anti-UCHL1 or anti-SMN antibodies were used to immunoprecipitate the protein. The re-suspended IP complexes were then analyzed by Western blot.
Next, to determine the functional significance of this interaction, purified UCHL1 tagged with 6×His was co-incubated with SMN immunoprecipitate and in vitro ubiquitination assay was performed. […] The SMN protein complex was immunoprecipitated from total cell extract treated with different concentrations of UCHL1 inhibitor and the level of ubiquitinated SMN was determined by the use of anti-ubiquitin antibody.

On to `CC(=O)O/N=C1\C(=O)N(Cc2cc(Cl)ccc2Cl)c2ccc(Cl)cc21` [LDN-57444], for which the “SMN protein expression level increase compared to the vehicle group” value in assay [1] (8 hours) is on record as 38%; in assay [1] (16 hours) it was 42%; in assay [1] (24 hours), 43%; in assay [1] (48 hours), 46%. Moreover, the SMN protein increase is recorded as 40% in assay [1] (8 hours), 56% in assay [1] (16 hours), 83% in assay [1] (24 hours) and 53% in assay [1] (48 hours). Further, the “SMN protein level, time course at high dosage” value in assay [1] (15 μM) is recorded as “time delay increase in SMN protein level until 16 hours”. Further, the “increase of gems number per one hundred cells comparing to vehicle” value in assay [2] (24 hours) is on record as 2.25 fold; in assay [2] (48 hours), 2.54 fold. For the same molecule, the “Total number of nucleus gems per 100 cells” value in assay [2] (10 μmol/l, 24 h) stood at 142±7.55 per 100 cells; in assay [2] (10 μmol/l, 48 h, medium and LDN-57444 replaced each day), 164 ± 8.50 per 100 cells; in assay [2] (20 μmol/l, 24 h), 189 ± 10.72 per 100 cells; in assay [2] (20 μmol/l, 48 h, medium and LDN-57444 replaced each day), 193 ± 10.21 per 100 cells. Besides, the “increase of cellular SMN protein level” value is 52-62% in assay [3] (type I SMA skin fibroblast cells), 31-38% in assay [3] (type II SMA skin fibroblast cells) and 72-87% in assay [3] (type III SMA skin fibroblast cells).
On to `CC(C)C[C@@H](C=O)NC(=O)[C@H](CC(C)C)NC(=O)[C@H](CC(C)C)NC(=O)OCc1ccccc1` [MG132] (Cbz-Leu-Leu-Leu-aldehyde), for which the “level of ubiquitinated SMN protein” value in assay [4] was “same enhancement”. Further, the “cellular SMN protein level (in words)” value in assay [3] (SMA skin fibroblast cells, positive control) is “increased cellular SMN protein level”.
